Reference: patent US20260007688A1, “SYNTHETIC ANALOGS OF CANNABINOL (CBN) FOR THE TREATMENT OF AGERELATED NEUROLOGICAL DISORDERS” (priority 2023, published 2026)

How the values were obtained:
Drosophila melanogaster = assay: Drosophila mild traumatic brain injury (mTBI) model; type: in vivo; details: 3.0 μM in food, 3 weeks after mTBI (10×); vehicle 70.2%
HT22 cells [1] = assay: Mitochondrial reactive oxygen species measurement (MitoSOX Red); type: cell-based, mouse; details: 5 μM compound + 50 nM RSL3
Procedure: The assay procedure described in Liang et al. was used. Briefly, HT22 cells were seeded onto 96-well black walled plates at a density of 3,000 cells/well in DMEM supplemented with 10% FBS and 1% antibiotics. After the desired treatments, the mitochondrial superoxide ROS were detected with MitoSOX Red reagent (Ex/Em=510/580 nm). Experiments were performed according to the manufacturer's instructions. Fluorescence was measured on a SpectraMax M5 microplate reader. Data were normalized for total protein/well. Each condition was analyzed in eight wells per independent experiment (n=8). Results are presented as the percentage of the controls with vehicle alone. Results were verified by live-cell imaging under a fluorescence microscope. FIG. 14 provides the results.

HT22 cells [2] = assay: Ferroptosis assay, erastin-induced cell death, MTT viability; type: cell-based; details: Mus musculus, HT-22, 500 nM erastin, 16 hours
Procedure: (§1) HT22 mouse hippocampal nerve cells were cultured in high-glucose Dulbecco's modified Eagle's medium (DMEM) (Invitrogen, Cat #11995065, Carlsbad, CA) supplemented with 10% fetal bovine serum (FBS) (Invitrogen, Carlsbad, CA) and 1% antibiotics including penicillin and streptomycin (Invitrogen Cat #10378016, Carlsbad, CA). Cell cultures were incubated at 37° C. in a fully humidified atmosphere containing 10% CO2.
(§2) The assay procedure described in Fischer et al. was used. Briefly, HT22 cells were seeded at 3,000 cells/well in 96-well tissue culture plates in DMEM plus 10% FBS and 1% antibiotics. After 24 hours of plating, the cells were pretreated with different concentrations of test compounds or a vehicle control for 1 hour followed by coincubation with 50-100 nM RSL3 or 500 nM erastin to induce the cell death cascade. After 16 hours of treatment, cell viability was measured by the MTT assay. Optical absorbance was measured at 570 nm on a SpectraMax M5 microplate reader. Samples were analyzed in eight to sixteen wells per independent experiment (n=8-16). Results are presented as the percentage of the controls with vehicle alone.

HT22 cells [3] = assay: Ferroptosis assay, RSL3-induced cell death, MTT viability; type: cell-based; details: Mus musculus, HT-22, 50 nM RSL3, 16 hours
Procedure: as §1, §2

HT22 cells [4] = assay: Oxytosis assay, glutamate-induced cell death, MTT viability; type: cell-based; details: Mus musculus, HT-22, 5 mM glutamate, 16 hours
Procedure: as §1
The assay procedure described in Fischer et al., “Old age-associated phenotypic screening for Alzheimer's disease drug candidates identifies sterubin as a potent neuroprotective compound from Yerba santa” Redox Biol. 21 (2019) 101089 was used. Briefly, HT22 cells were seeded at 3,000 cells/well in 96-well tissue culture plates in DMEM plus 10% FBS and 1% antibiotics. After 24 hours of plating, the cells were pretreated with different concentrations of the test compounds or a vehicle control for 1 hour followed by coincubation with 5 mM glutamate to initiate the cell death cascade. After 16 hours of treatment, cell viability was measured by the 3-(4,5-dimethylthiazol-2-yl)-2,5-diphenyltetrazolium bromide (MTT) assay. Optical absorbance was measured at 570 nm on a SpectraMax M5 microplate reader. Samples were analyzed in eight to sixteen wells per independent experiment (n=8-16). Results are presented as the percentage of the controls with vehicle alone.

MC65 cells = assay: Intracellular amyloid toxicity assay; type: cell-based; details: Homo sapiens, 72 h, APP-C99 induced, day 3, MTT, read-out: Aβ toxicity EC50
Excerpt: Accumulation of intracellular amyloid beta peptide (Aβ) is considered by many as being a primary toxic event in AD. The human nerve cell line MC65 conditionally expresses the C99 fragment of the amyloid precursor protein (APP) leading to the accumulation of intracellular AB. The MC65 cells are routinely grown in the presence of tetracycline and, following its removal, the expression of C99 is induced and the cells die within three days because of the accumulation of intracellular, toxic protein aggregates.
For the intracellular amyloid toxicity assay the procedure described in Huang et al., “Intracellular amyloid toxicity induces oxytosis/ferroptosis regulated cell death” Cell Death Dis. 11 (10) (2020) 828 was used. Briefly, MC65 cells were regularly grown in high glucose DMEM supplemented with 10% FCS and 2 μg/ml tetracycline. For the assay, cells were dissociated and plated at 1×10^5 cells per well in 24 well tissue culture plates. After overnight cultivation in growth medium, the cells were washed three times with phosphate buffered saline containing calcium and magnesium and then switched to Opti-minimal essential media (Opti-MEM, Invitrogen) in the presence (no induction) or absence (APP-C99 induced) of 2 μg/ml tetracycline in the presence or absence different concentrations of the indicated compounds. At day 3, the control cells in the absence of tetracycline were dead, and cell viability was determined by the MTT assay. Optical absorbance was measured at 570 nm on a SpectraMax M5 microplate reader. Samples were analyzed in three wells per independent experiment (n=3). Results are presented as EC50.

HT22 cells [5] = assay: Seahorse XF mitochondrial stress test (OCR); type: cell-based, mouse; details: 16 hours, compared with the control cells
HT22 cells [6] = assay: Seahorse XF real-time ATP rate assay; type: cell-based, mouse; details: 5 μM, 16 hours
Procedure: The assay procedure described in Liang et al., “Cannabinol inhibits oxytosis/ferroptosis by directly targeting mitochondria independently of cannabinoid receptors” Free Radic. Biol. Med. 180 (2022) 33-51 was used. Briefly, ATP production rates were assayed with a XF Real-Time ATP Rate Assay Kit using a Seahorse Xfe96 Extracellular Flux Analyzer (Seahorse Bioscience, North Billerica, MA). Complete Seahorse XF DMEM assay medium was supplemented with 10 mM glucose, 1 mM pyruvate and 2 mM L-glutamine, at pH 7.4. Mitochondrial ETC inhibitors were used at the following concentrations: 1.5 μM oligomycin and 0.5 μM of a 1:1 mixture of rotenone and antimycin A. Analyses were conducted using Wave software and XF Report Generators (Agilent Technologies). The sensor cartridge for the Xfe analyzer was hydrated overnight at 37° C. before the experiment. Data were normalized for total protein/well. Each condition was analyzed in 20-40 wells per independent experiment (n=20-40). FIGS. 12 and 13 provide the results.
For HT22 cells, 2,000 cells/well were seeded onto the Seahorse Xfe96 plates under normal culture condition as described above. The next day, cells were treated with test compounds at the desired concentrations and incubated for 16 hours. Immediately before the assay, the culture medium in the plates was replaced with complete Seahorse XF DMEM assay medium. […]

HT22 cells [7] = assay: Lipid peroxidation measurement (C11-BODIPY); type: cell-based, mouse; details: compound + RSL3, 16 hours, p<0.0001
Procedure: The assay procedures were adapted from the procedures disclosed by Soriano-Castell et al., “Profiling the chemical nature of anti-oxytotic/ferroptotic compounds with phenotypic screening” Free Radic. Biol. Med. 177 (2021) 313-325 and Liang et al. “Cannabinol inhibits oxytosis/ferroptosis by directly targeting mitochondria independently of cannabinoid receptors” Free Radic. Biol. Med. 180 (2022) 33-51. Briefly, HT22 cells were seeded onto 96-well black walled plates at a density of 3,000 cells/well in DMEM supplemented with 10% FBS and 1% antibiotics. After the desired treatments for 16 hours, cells were labeled with 2.5 μM C11-BODIPY 581/591 (oxidized form Ex/Em=488/520 nm) at 37° C. for 2 hours. Experiments were performed according to the manufacturer's instructions. Fluorescence was measured on a SpectraMax M5 microplate reader. Data were normalized for total protein/well. Each condition was analyzed in eight wells per independent experiment (n=8). Results were verified by live-cell imaging under a fluorescence microscope.

HT22 cells [8] = assay: Microscopic imaging of cell morphology after RSL3; type: cell-based, mouse; details: 5 μM compound + 50 nM RSL3, 16 hours
Excerpt: Micrographs show the representative morphological characteristics of the cell cultures under a given condition of 8 experimental replicates. Scale bar=200 μm.
Microscopy. Brightfield, phase contrast, and fluorescence microscopic images were acquired on an IX51 inverted microscope (Olympus Corporation, Tokyo, Japan) with an INFINITY3 monochrome CCD camera (Teledyne Lumenera, Ontario, Canada). Super-resolution microscopic images were acquired on a Zeiss LSM 880 rear port laser scanning confocal and Airyscan FAST microscope (Carl-Zeiss, Oberkochen, Germany). Image processing and analysis were performed with microscope software packages ZEN Black and ImageJ/Fiji.

CCCCCc1cc(O)c2c(c1)OC(C)(C)c1ccc(C)cc1-2 [CBN, Cannabinol]
3-week mortality index (MI), percentage of dead flies (Drosophila melanogaster): 60.5%
RSL3-induced mtROS production (HT22 cells [1]): significantly suppressed
EC50 (HT22 cells [2]): 2.33 µM
EC50 (HT22 cells [3]): 0.69 µM
EC50 (HT22 cells [4]): 1.89 µM
EC50 (MC65 cells): 0.014 µM
maximal and spare mitochondrial respiration (OCR) (HT22 cells [5]): partial but significant decrease
total ATP production rate (HT22 cells [6]; compared to the control): slightly but significantly decreased
increase in the OXPHOS contribution to ATP production (HT22 cells [6]; relative to the control): approximately 15%
RSL3-induced increase in intracellular LPO (HT22 cells [7]): significantly suppressed
prevention of RSL3-induced morphological deteriorations (HT22 cells [8]): effectively prevented
